Assay results from patent US6492329B1, “Cytokine and hemopoietic factor endogenous production enhancer and methods of use thereof” (Novelos Therapeutics, Inc., priority 1995, dated 2002).

Legend:
leukemia L1210 cells = experiment: Leukemia L1210 in mice: ascitic fluid and survival (Example 14); conditions: for Accumulation of ascitic (weight gain, %): leukemia L1210
Experimental: (§6) An influence of 7 day course of test article daily administration was studied in respect of tumor progression, which was estimated using the two integral indices: pace of mouse weight gain due to accumulation of ascitic fluid, and by animal mean survival time after inoculation.
(§7) The study was carried out on DBA/2 mice weighing 18-21 g. First, tumor cell passage was performed using 6 animals for each cell line. For this, cells kept at the temperature of the liquid nitrogen were de-frozen and adjusted to the concentration of 5×10^6 cells/mL by sterile Hanks' solution. Then, 6 mice were intra peritoneally inoculated with 0.2 mL of each line cellular suspension.
(§8) Ascitic fluid was collected 6 days after the inoculation with L1210 cells, 8 days after the inoculation with P388 ones and 18 days after inoculation with Erlich adenocarcinoma cells. Thus obtained, the samples of passaged tumor cells were used for the main experiments. The fluid liquid was dissolved by sterile Hanks' solution so that cell concentration be 5×10^6 cells/mL for P388 cells and Erlich adenocarcinoma cells, 5×10^5 cells/mL for L1210 cells.
(§9) Eleven groups of animals with no less than 15 mice each were formed for experiments with either tumor cell line. Mice were inoculated with 0.2 mL of resultant cell suspensions per mouse (10^6 P388 and Erlich adenocarcinoma cells/mouse, and 10^5 L1210 cells/mouse). 24 hours after the tumor cells inoculation, animals were given the first injections of the test articles or vehicles. The test article injections were made daily till the 14th day of the experiment or till the animal death. The volume of solutions injected comprised 0.01 mL/g body weight.
(§10) #1—intact animals receiving imitation of tumor cell inoculation (injection of normal saline) which further were treated with normal saline throughout the entire experiment;
(§11) #2—control animals, inoculated with tumor cells, which further were treated with test article vehicle (normal saline);

[1] = tested on: Erlich adenocarcinoma cells; experiment: Erlich adenocarcinoma in mice: ascitic fluid and survival (Example 14); conditions: for Accumulation of ascitic (weight gain, %): Erlich adenocarcinoma
Experimental: as §6, §7, §8, §9, §10, §11

[2] = tested on: e-ras cells after UV-irradiation; experiment: Number of clones of e-ras cells after UV-irradiation; assay type: cell-based, rat
Experimental: (§1) To this end, these substances had been incubated for 72 hours with cells of rat embrional fibroblasts (REF) and the same cells, transformed with adenoviral E1A gene in complementation with ras-oncogene (e-ras cell line). Subsequent evaluation of the cellularity of experimental samples was carried out by counting the quantity of cell per milliliter (for REF cell line) or clones in dish (for e-ras cell line).
(§2) Cells were cultivated on DMEM medium supplemented with 10% fetal calf serum and […] gentamicin. Cultivation was carried out in Petri dishes.
(§3) E-ras cells were seeded at a cell density of 300 cells per 5 cm dish. 7 days after growth of e-ras cells had been started the quantity of clones was evaluated and the test articles were added into the dishes.
(§4) For the test-system for estimation of apoptosis regulation UV-induced cell death was triggered in a dose of 4 Dj. Test articles were added immediately after irradiation. Then, the quantity of cell per milliliter (for REF cell line) or clones in dish (for e-ras cell line) were monitored every 24 hours. For determination of DNA-fragmentation the electrophoresis in agarose gel was used at standard settings.

[3] = tested on: rat embrional fibroblasts (REF) after UV-irradiation; experiment: Number of REF cells after UV-irradiation; assay type: cell-based
Experimental: as §1, §2
(§5) REF cells was cultivated with initial density of 800 000 cell per mL, evaluation of the cellularity was performed at 0, 24, 48 and 72 hours of incubation with the test articles.
as §4

[4] = tested on: e-ras cell line (REF transformed with E1A and ras-oncogene); experiment: Number of clones of e-ras cells throughout 72-hr incubation; assay type: cell-based, rat
Experimental: as §1, §2, §3, §4

[5] = tested on: rat embrional fibroblasts (REF); experiment: Number of REF cells throughout 72-hr incubation; assay type: cell-based
Experimental: as §1, §2, §5, §4

NCCSSCCNC(=O)CNC(=O)C(CSSCC(NC(=O)CCC(N)C(=O)O)C(=O)NCC(=O)O)NC(=O)CCC(N)C(=O)O (stereo not shown) [S-thioethylamine-GSSG + normal saline]
Accumulation of ascitic (weight gain, %) (leukemia L1210 cells; number of injection 0): 0.77 ± 0.2%
Accumulation of ascitic (weight gain, %) (leukemia L1210 cells; number of injection 3): 3.1 ± 0.4%
Accumulation of ascitic (weight gain, %) (leukemia L1210 cells; number of injection 7): 92 ± 1.2%
Mean survival time (leukemia L1210 cells; mice inoculated with leukemia L1210 cells): 19.2 ± 0.8
Accumulation of ascitic (weight gain, %) ([1]; number of injection 0): 0.8 ± 0.1%
Accumulation of ascitic (weight gain, %) ([1]; number of injection 3): 3.2 ± 0.6%
Accumulation of ascitic (weight gain, %) ([1]; number of injection 7): 10.2 ± 2.2%
Mean survival time ([1]; mice inoculated with Erlich adenocarcinoma cells): 16.2 ± 1.2

NCCSSCCNC(=O)CNC(=O)C(CSSCC(NC(=O)CCC(N)C(=O)O)C(=O)NCC(=O)O)NC(=O)CCC(N)C(=O)O (stereo not shown) [S-thioethylamine-GSSG in normal saline]
number of clones of e-ras cells after UV-irradiation (M ± m) ([2]; 0 hours): 286 ± 14
number of clones of e-ras cells after UV-irradiation (M ± m) ([2]; 24 hours): 182 ± 14
number of clones of e-ras cells after UV-irradiation (M ± m) ([2]; 48 hours): 116 ± 8
number of clones of e-ras cells after UV-irradiation (M ± m) ([2]; 72 hours): 82 ± 4
number of REF cells after UV-irradiation (M ± m) ([3]; 0 hours): 789 ± 21 × 10^3 cells
number of REF cells after UV-irradiation (M ± m) ([3]; 24 hours): 422 ± 14 × 10^3 cells
number of REF cells after UV-irradiation (M ± m) ([3]; 48 hours): 260 ± 23 × 10^3 cells
number of REF cells after UV-irradiation (M ± m) ([3]; 72 hours): 212 ± 16 × 10^3 cells
number of clones of e-ras cells (M ± m) ([4]; 0 hours of incubation): 286 ± 14
number of clones of e-ras cells (M ± m) ([4]; 24 hours of incubation): 202 ± 14
number of clones of e-ras cells (M ± m) ([4]; 48 hours of incubation): 156 ± 10
number of clones of e-ras cells (M ± m) ([4]; 72 hours of incubation): 112 ± 12
number of REF cells (M ± m) ([5]; 0 hours of incubation): 789 ± 21 × 10^3 cells
number of REF cells (M ± m) ([5]; 24 hours of incubation): 1422 ± 14 × 10^3 cells
number of REF cells (M ± m) ([5]; 48 hours of incubation): 2602 ± 43 × 10^3 cells
number of REF cells (M ± m) ([5]; 72 hours of incubation): 5112 ± 168 × 10^3 cells

NCCSSCCNC(=O)CNC(=O)C(CSSCC(NC(=O)CCC(N)C(=O)O)C(=O)NCC(=O)O)NC(=O)CCC(N)C(=O)O (stereo not shown) [S-thioethylamine-GSSG, S-thioethylamine-glutathione disulfide]
death of transformed e-ras cells after UV-irradiation [2]: potentiate death of the transformed cells
UV-induced apoptosis of normal cells (REF line) [3]: do not promote the apoptosis of normal cells
death of transformed e-ras cells ([4]; 72-hr incubation): induce a transformed cell death
apoptosis of normal cells (REF line) ([5]; 72-hr incubation): didn't promote apoptosis of normal cells
